From patent US10519108B2, “Inhibitors of retinaldehyde dehydrogenases and methods of use” (The Board of Regents of the University of Oklahoma, priority 2015, dated 2019)

Experiments:
RALDH = RALDH activity in recovering choroid tissue homogenates, atRA synthesis by HPLC; type: biochemical; details: choroid cytosol fractions, DAR 5-25 μM, NAD 4 mM, all-trans-retinaldehyde 25 μM, 37° C. 30 min
Protocol: RALDH activity was assessed in choroid tissue homogenates in the presence of DAR (5-25 μM), or vehicle (EtOH) by measuring all-trans-retinoic acid (atRA) synthesis. Choroid cytosol fractions were incubated in the presence of cofactor NAD (4 mM) and all-trans-retinaldehyde (25 μM) at 37° C. for 30 min. Following incubation, retinoids were extracted and quantified using HPLC.

[1] = molecular target: T1, aldehyde dehydrogenase 2 (ALDH2) (Homo sapiens, UniProt P05091); experiment: ALDH2 activity by NADH synthesis, absorbance at 340 nm; type: biochemical
T1 sequence (P05091 18-517): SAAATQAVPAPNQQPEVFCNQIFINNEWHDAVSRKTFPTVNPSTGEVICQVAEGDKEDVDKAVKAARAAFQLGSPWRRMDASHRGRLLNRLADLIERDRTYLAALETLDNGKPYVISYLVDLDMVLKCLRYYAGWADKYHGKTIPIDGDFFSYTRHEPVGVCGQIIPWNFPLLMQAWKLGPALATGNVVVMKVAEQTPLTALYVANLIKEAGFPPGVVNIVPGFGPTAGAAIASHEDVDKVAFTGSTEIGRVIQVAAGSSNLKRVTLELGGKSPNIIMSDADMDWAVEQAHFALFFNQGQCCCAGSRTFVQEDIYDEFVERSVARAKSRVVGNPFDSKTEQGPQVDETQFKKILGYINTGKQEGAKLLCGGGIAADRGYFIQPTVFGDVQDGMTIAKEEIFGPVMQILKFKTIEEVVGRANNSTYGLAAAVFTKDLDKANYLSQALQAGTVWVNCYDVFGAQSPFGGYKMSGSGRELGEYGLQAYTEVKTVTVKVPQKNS

RALDH3 = molecular target: T2, RALDH3 (Homo sapiens, UniProt P47895); experiment: RALDH3 activity by NADH synthesis, fluorescence-based NADH sensor; type: biochemical; details: in the presence of DAR
T2 sequence (P47895 1-512): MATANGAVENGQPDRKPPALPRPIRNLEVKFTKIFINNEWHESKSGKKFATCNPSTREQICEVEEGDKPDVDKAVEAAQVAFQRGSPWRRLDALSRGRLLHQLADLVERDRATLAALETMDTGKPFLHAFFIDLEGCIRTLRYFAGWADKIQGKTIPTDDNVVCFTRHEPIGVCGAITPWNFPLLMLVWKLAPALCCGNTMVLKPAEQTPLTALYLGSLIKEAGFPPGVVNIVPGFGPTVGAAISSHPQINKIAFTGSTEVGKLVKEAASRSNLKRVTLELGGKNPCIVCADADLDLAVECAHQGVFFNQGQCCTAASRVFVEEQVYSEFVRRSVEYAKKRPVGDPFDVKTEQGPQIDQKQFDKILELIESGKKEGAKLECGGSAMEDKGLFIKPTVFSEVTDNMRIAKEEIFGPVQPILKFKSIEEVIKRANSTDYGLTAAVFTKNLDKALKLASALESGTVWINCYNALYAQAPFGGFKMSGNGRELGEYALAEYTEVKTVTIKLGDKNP

RALDH2 = molecular target: T3, RALDH2 (Homo sapiens, UniProt O94788); experiment: RALDH2 activity by NADH synthesis, fluorescence-based NADH sensor; type: biochemical
T3 sequence (O94788 1-518): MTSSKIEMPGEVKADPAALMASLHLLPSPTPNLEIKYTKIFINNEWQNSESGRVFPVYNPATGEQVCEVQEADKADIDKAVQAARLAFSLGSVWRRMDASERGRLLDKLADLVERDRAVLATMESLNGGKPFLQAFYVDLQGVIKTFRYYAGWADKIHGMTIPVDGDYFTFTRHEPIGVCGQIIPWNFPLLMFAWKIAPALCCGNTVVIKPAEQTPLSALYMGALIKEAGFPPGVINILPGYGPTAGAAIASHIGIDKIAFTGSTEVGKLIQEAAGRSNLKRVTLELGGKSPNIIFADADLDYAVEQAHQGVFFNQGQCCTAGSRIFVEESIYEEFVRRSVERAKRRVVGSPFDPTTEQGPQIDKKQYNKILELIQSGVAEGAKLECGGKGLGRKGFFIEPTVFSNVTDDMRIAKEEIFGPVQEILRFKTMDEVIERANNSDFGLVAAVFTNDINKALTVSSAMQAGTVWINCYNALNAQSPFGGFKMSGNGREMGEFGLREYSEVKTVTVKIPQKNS

[2] = molecular target: T4, retinaldehyde dehydrogenase 1 (RALDH1) (Homo sapiens, UniProt P00352); experiment: RALDH1 activity by NADH synthesis, fluorescence-based NADH sensor; type: biochemical; details: in the presence of DAR
T4 sequence (P00352 1-501): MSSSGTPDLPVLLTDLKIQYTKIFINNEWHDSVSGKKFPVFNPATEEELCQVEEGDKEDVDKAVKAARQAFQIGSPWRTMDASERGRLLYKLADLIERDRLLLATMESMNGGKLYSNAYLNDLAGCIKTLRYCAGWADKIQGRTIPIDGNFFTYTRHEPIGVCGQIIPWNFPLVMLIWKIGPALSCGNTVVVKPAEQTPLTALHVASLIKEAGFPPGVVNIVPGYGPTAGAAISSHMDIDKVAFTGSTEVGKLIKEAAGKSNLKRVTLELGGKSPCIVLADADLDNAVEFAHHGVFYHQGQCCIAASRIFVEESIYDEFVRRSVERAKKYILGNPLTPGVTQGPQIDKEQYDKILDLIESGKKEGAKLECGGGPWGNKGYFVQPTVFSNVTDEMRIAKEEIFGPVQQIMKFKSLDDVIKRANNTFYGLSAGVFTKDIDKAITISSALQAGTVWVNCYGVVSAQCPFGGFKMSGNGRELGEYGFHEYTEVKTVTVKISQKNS

spermatogenesis = details: cited from earlier work

Structure (SMILES) | retinoic acid (atRA) synthesis by RALDH (RALDH) | effect on ALDH2 assessed by NADH synthesis [1] | activity of RALDH3 assessed by NADH synthesis (RALDH3) | IC50 (RALDH2; NADH synthesis, 95% C.I.=41.0-66.4 nM) [nM] | activity of RALDH2 assessed by NADH synthesis (RALDH2; in the presence of DAR, fluorescence-based NADH sensor) | activity of RALDH1 assessed by NADH synthesis [2] | inhibition of spermatogenesis (spermatogenesis; human males) | reactions in patients who consumed alcohol (spermatogenesis; human, alcohol consumed while taking compound, due to inhibition of ALDH2)
CC1=C(/C=C/C(C)=C/C=C/C(C)=C/C(=O)C(Cl)Cl)C(C)(C)CCC1 [DAR, (3E,5E,7E,9E)-1,1-dichloro-4,8-dimethyl-10-(2,6,6-trimethylcyclohex-1-en-1-yl)deca-3,5,7,9-tetraen-2-one] | significantly inhibited | does not significantly inhibit | effectively inhibits | 52.2 | effectively inhibits | effectively inhibits |  | 
O=C(NCCCCCCCCNC(=O)C(Cl)Cl)C(Cl)Cl [WIN-18446] |  | non-specific ALDH2 inhibitor |  |  |  |  | potent, reversible inhibitor of spermatogenesis | violent “disulfiram” reactions
